Measurements reported in the NIST ThermoML archive (doi:10.1016/j.jct.2019.03.005).
± gives the expanded uncertainty stated by the source.

Details: Liquid, Frequency=3 MHz, Pulse-echo method

CC(C)(C)c1ccccc1 [(1,1-dimethylethyl)benzene]
speed of sound (298.15 K, 100 kPa): 1316.4 ± 1.5 m/s
speed of sound (298.15 K, 20100 kPa): 1415.8 ± 1.6 m/s
speed of sound (298.15 K, 40100 kPa): 1501.7 ± 1.7 m/s
speed of sound (298.15 K, 60100 kPa): 1578.5 ± 1.7 m/s
speed of sound (298.15 K, 80100 kPa): 1647.9 ± 1.8 m/s
speed of sound (298.15 K, 100100 kPa): 1711.7 ± 1.9 m/s
speed of sound (313.15 K, 100 kPa): 1255.3 ± 1.4 m/s
speed of sound (313.15 K, 20100 kPa): 1360.3 ± 1.5 m/s
speed of sound (313.15 K, 40100 kPa): 1450.3 ± 1.6 m/s
speed of sound (313.15 K, 60100 kPa): 1529.8 ± 1.7 m/s
speed of sound (313.15 K, 80100 kPa): 1601.7 ± 1.8 m/s
speed of sound (313.15 K, 100100 kPa): 1667.3 ± 1.8 m/s
speed of sound (333.15 K, 100 kPa): 1176.9 ± 1.3 m/s
speed of sound (333.15 K, 20100 kPa): 1290.1 ± 1.4 m/s
speed of sound (333.15 K, 40100 kPa): 1385.4 ± 1.5 m/s
speed of sound (333.15 K, 60100 kPa): 1469 ± 1.6 m/s
speed of sound (333.15 K, 80100 kPa): 1543.9 ± 1.7 m/s
speed of sound (333.15 K, 100100 kPa): 1612.5 ± 1.8 m/s
speed of sound (353.15 K, 100 kPa): 1101.8 ± 1.2 m/s
speed of sound (353.15 K, 20100 kPa): 1223.5 ± 1.4 m/s
speed of sound (353.15 K, 40100 kPa): 1324.4 ± 1.5 m/s
speed of sound (353.15 K, 60100 kPa): 1411.8 ± 1.6 m/s
speed of sound (353.15 K, 80100 kPa): 1489.6 ± 1.6 m/s
speed of sound (353.15 K, 100100 kPa): 1560.2 ± 1.7 m/s
speed of sound (373.15 K, 100 kPa): 1029.9 ± 1.2 m/s
speed of sound (373.15 K, 20100 kPa): 1161.2 ± 1.3 m/s
speed of sound (373.15 K, 40100 kPa): 1267.7 ± 1.4 m/s
speed of sound (373.15 K, 60100 kPa): 1359 ± 1.5 m/s
speed of sound (373.15 K, 80100 kPa): 1439.6 ± 1.6 m/s
speed of sound (373.15 K, 100100 kPa): 1512.4 ± 1.7 m/s
speed of sound (393.15 K, 100 kPa): 959.3 ± 1.1 m/s
speed of sound (393.15 K, 20100 kPa): 1101.1 ± 1.2 m/s
speed of sound (393.15 K, 40100 kPa): 1213.3 ± 1.3 m/s
speed of sound (393.15 K, 60100 kPa): 1308.5 ± 1.5 m/s
speed of sound (393.15 K, 80100 kPa): 1392 ± 1.5 m/s
speed of sound (393.15 K, 100100 kPa): 1466.9 ± 1.6 m/s
speed of sound (413.15 K, 100 kPa): 890.9 ± 1 m/s
speed of sound (413.15 K, 20100 kPa): 1042.6 ± 1.2 m/s
speed of sound (413.15 K, 40100 kPa): 1161.1 ± 1.3 m/s
speed of sound (413.15 K, 60100 kPa): 1260.2 ± 1.4 m/s
speed of sound (413.15 K, 80100 kPa): 1346.6 ± 1.5 m/s
speed of sound (413.15 K, 100100 kPa): 1423.8 ± 1.6 m/s
speed of sound (433.15 K, 100 kPa): 823.7 ± 0.9 m/s
speed of sound (433.15 K, 20100 kPa): 987.2 ± 1.1 m/s
speed of sound (433.15 K, 40100 kPa): 1112.1 ± 1.2 m/s
speed of sound (433.15 K, 60100 kPa): 1215.1 ± 1.4 m/s
speed of sound (433.15 K, 80100 kPa): 1304.3 ± 1.4 m/s
speed of sound (433.15 K, 100100 kPa): 1383.6 ± 1.5 m/s

CC(C)c1ccccc1 [isopropylbenzene]
speed of sound (298.15 K, 100 kPa): 1309.1 ± 1.6 m/s
speed of sound (298.15 K, 20100 kPa): 1406.9 ± 1.7 m/s
speed of sound (298.15 K, 40100 kPa): 1491.7 ± 1.8 m/s
speed of sound (298.15 K, 60100 kPa): 1566.8 ± 1.9 m/s
speed of sound (298.15 K, 80100 kPa): 1634.8 ± 1.9 m/s
speed of sound (298.15 K, 100100 kPa): 1697.4 ± 2 m/s
speed of sound (313.15 K, 100 kPa): 1247.6 ± 1.5 m/s
speed of sound (313.15 K, 20100 kPa): 1351.3 ± 1.6 m/s
speed of sound (313.15 K, 40100 kPa): 1440 ± 1.7 m/s
speed of sound (313.15 K, 60100 kPa): 1518.3 ± 1.8 m/s
speed of sound (313.15 K, 80100 kPa): 1588.9 ± 1.9 m/s
speed of sound (313.15 K, 100100 kPa): 1653.3 ± 1.9 m/s
speed of sound (333.15 K, 100 kPa): 1168.5 ± 1.5 m/s
speed of sound (333.15 K, 20100 kPa): 1280.5 ± 1.6 m/s
speed of sound (333.15 K, 40100 kPa): 1374.7 ± 1.7 m/s
speed of sound (333.15 K, 60100 kPa): 1457.2 ± 1.7 m/s
speed of sound (333.15 K, 80100 kPa): 1530.9 ± 1.8 m/s
speed of sound (333.15 K, 100100 kPa): 1598 ± 1.9 m/s
speed of sound (353.15 K, 100 kPa): 1091.8 ± 1.4 m/s
speed of sound (353.15 K, 20100 kPa): 1213.2 ± 1.5 m/s
speed of sound (353.15 K, 40100 kPa): 1313.2 ± 1.6 m/s
speed of sound (353.15 K, 60100 kPa): 1399.6 ± 1.7 m/s
speed of sound (353.15 K, 80100 kPa): 1476.5 ± 1.8 m/s
speed of sound (353.15 K, 100100 kPa): 1546 ± 1.8 m/s
speed of sound (373.15 K, 100 kPa): 1017.8 ± 1.3 m/s
speed of sound (373.15 K, 20100 kPa): 1149.2 ± 1.5 m/s
speed of sound (373.15 K, 40100 kPa): 1255.1 ± 1.6 m/s
speed of sound (373.15 K, 60100 kPa): 1345.6 ± 1.6 m/s
speed of sound (373.15 K, 80100 kPa): 1425.6 ± 1.7 m/s
speed of sound (373.15 K, 100100 kPa): 1497.4 ± 1.8 m/s
speed of sound (393.15 K, 100 kPa): 945.6 ± 1.3 m/s
speed of sound (393.15 K, 20100 kPa): 1088.1 ± 1.4 m/s
speed of sound (393.15 K, 40100 kPa): 1200.1 ± 1.5 m/s
speed of sound (393.15 K, 60100 kPa): 1294.7 ± 1.6 m/s
speed of sound (393.15 K, 80100 kPa): 1377.6 ± 1.7 m/s
speed of sound (393.15 K, 100100 kPa): 1451.6 ± 1.7 m/s
speed of sound (413.15 K, 100 kPa): 875 ± 1.2 m/s
speed of sound (413.15 K, 20100 kPa): 1029.6 ± 1.3 m/s
speed of sound (413.15 K, 40100 kPa): 1147.8 ± 1.5 m/s
speed of sound (413.15 K, 60100 kPa): 1246.5 ± 1.5 m/s
speed of sound (413.15 K, 80100 kPa): 1332.1 ± 1.6 m/s
speed of sound (413.15 K, 100100 kPa): 1408.6 ± 1.7 m/s
speed of sound (433.15 K, 10100 kPa): 897.7 ± 1.2 m/s
speed of sound (433.15 K, 20100 kPa): 974 ± 1.3 m/s
speed of sound (433.15 K, 40100 kPa): 1098.9 ± 1.4 m/s
speed of sound (433.15 K, 60100 kPa): 1201.3 ± 1.5 m/s
speed of sound (433.15 K, 80100 kPa): 1289.9 ± 1.6 m/s
speed of sound (433.15 K, 100100 kPa): 1368.6 ± 1.7 m/s
